43 compounds from patent US12162857B2, “Antiviral compounds” (priority 2022, dated 2024) can be followed below.

Each structure is given as a SMILES string.

One may read the EC50 as the concentration needed to bring the measured effect to its halfway point. Low values mean greater potency, high ones weaker potency.

This assay relates to HMPV A2 TN/94-49. As to the kind of experiment: HMPV antiviral assay: LLC-MK2 cells, ATP-Lite readout. In kind it is cell-based. The following applies: LLC-MK2, 168 h, MOI 0.005, 7 days incubation. The procedure:
In vitro HMPV antiviral activity was evaluated using the clinical isolate A2 strain TN 94-49 and LLC-MK2 cells (ATCC #CCL-7), an immortalized kidney epithelial cell line from Macaca mulatta. Compounds were resuspended in dimethyl sulfoxide (DMSO) at 10 mM, serially diluted and added to a 384-well source plate. Subsequently, the compounds were diluted and transferred onto 384-well assay plates using the Echo-650 automated liquid handling system (Beckman Coulter, Indiana). The test compounds were assessed in duplicate at a top concentration of 2 μM followed by 2.5-fold serial dilutions to give a total of 10 concentration points. DMSO control wells were also included on the assay plates and were either infected or not, acting as positive and negative controls. A2 TN 94-49 virus infections were performed in-suspension with LLC-MK2 cells. The cells were washed twice with PBS and removed from the cell-culture flask with 0.25% trypsin-EDTA (Thermo Fisher Scientific, MA). The trypsin-EDTA was inactivated by resuspending in 2% fetal bovine serum (FBS) and OptiMEM (ThermoFisher Scientific, MA) containing 1% penicillin-streptomycin. Cells were pelleted by centrifuging for 5 minutes at 800 rpm, the supernatant was removed, and cells were re-suspended and washed in PBS plus 100 μg/mL CaCl2). This step was performed twice. Cells were then re-suspended in serum-free (SF)-OptiMEM containing 4 μg/mL TPCK-Trypsin (Sigma Aldrich, MO), 1% penicillin-streptomycin (ThermoFisher Scientific, MA) and 100 μg/mL CaCl2). Cells were counted and seeded at a density of 5,000 cells/well, 12.5 μL/well. Virus infections were done at a multiplicity of infection (MOI) of 0.005 with 12.5 μL added per well. Virus infections were performed in infection media which contained SF-OptiMEM, 100 μg/mL CaCl2) and 1% penicillin-streptomycin. HMPV viral stocks are suspended in infection media+5% glycerol, thus an equal volume of infection media+5% glycerol was added to uninfected wells to equalize the final % glycerol across all wells of the assay plate. The final concentration of TPCK-trypsin was 2 μg/mL. The assay plates were incubated at 37° C., 5% CO2 for 7 days. After 7 days incubation, 12.5 μL of ATP-Lite (PerkinElmer, MA) was added to each well and the raw luminescence values were determined using the Envision 2104 (Perkin Elmer, MA). The average of the raw luminescence values for the cells and virus only positive control wells was subtracted from all conditions tested and the percent cell health was determined by dividing these values by the average of the cells only negative control wells. EC50 values were then calculated by non-linear regression using a four-parameter curve logistic equation. The curve fit model employed was XLFit Dose Response One Site Model 200: y=(A+(B/(1+((x/C)^D)))), where A is the minimum y value, B is the maximum y value, C is the log EC50 value, and D is the slope factor. […] EC50 ranges are as follows: A<1 μM; B>1 μM.
`COc1c(C(C)(C)O)cc([C@@](O)(CNC(=O)c2cc(OC)c3nn(C4CC4)cc3c2)C2CC2)nc1-c1cc(F)c(F)cc1F` (single isomer, unassigned) [Example 165] yielded an EC50 greater than 1 µM. `COc1cc(C(=O)NC[C@](O)(c2cc(C(C)(C)O)c(F)c(-c3cc(Cl)c(F)cc3F)n2)C2CC2)cc2cn(C3(F)CC3)nc12` [Example 53]: the EC50 is less than 1 µM. `COc1cc(C(=O)NC[C@](O)(c2cc(C(C)(C)O)c(F)c(-c3cc(Cl)c(F)cc3F)n2)C2CC2)cc2cn(C(F)F)nc12` [Example 54]: the EC50 was less than 1 µM. The compound `CC(C)(O)c1cc([C@@](O)(CNC(=O)c2cc(OC3CC3)c3nn(C4CC4)cc3c2)C2CC2)nc(-c2cc(Cl)c(F)cc2F)c1F` [Example 55] came in with an EC50 of less than 1 µM. With `COc1cc(C(=O)NC[C@](O)(c2cc(C(C)(C)O)c(F)c(-c3cc(Cl)c(F)cc3F)n2)C2CC2)cc2cc(C3CC3)nn12` [Example 56], the EC50 is less than 1 µM. `COc1cc(C(=O)NC[C@](O)(c2cc(C(C)(C)O)c(F)c(-c3cc(Cl)c(F)cc3F)n2)c2nccs2)cc2cn(C3CC3)nc12` [Example 58] returned an EC50 of less than 1 µM.

Compound `COc1cc(C(=O)NC[C@@](O)(c2ccccc2)c2cc(C(C)(C)O)c(F)c(-c3cc(Cl)c(F)cc3F)n2)cc2cn(C3CC3)nc12` [Example 60] had an EC50 of less than 1 µM. Compound `COc1cc(C(=O)NC[C@@](O)(c2ccccc2)c2cc(C(C)(C)O)c(F)c(-c3cc(Cl)c(F)cc3F)n2)cc2cn(C3(F)CC3)nc12` [Example 61] returned an EC50 of less than 1 µM.

Take `CC(C)(O)c1cc([C@@](O)(CNC(=O)c2cc(OC3CC3)c3nn(C4CC4)cc3c2)c2ccccc2)nc(-c2cc(Cl)c(F)cc2F)c1F` [Example 63]: the EC50 was less than 1 µM. Compound `CC(C)(O)c1cc([C@@](O)(CNC(=O)c2cc(Cl)c3nn(C4CC4)cc3c2)c2ccccc2)nc(-c2ccc(F)c(Cl)c2Cl)c1F` [Example 68] came in with an EC50 of less than 1 µM. In turn, `COc1cc(C(=O)NC[C@@](O)(c2ccccc2)c2cc(C(C)(C)O)c(F)c(-c3ccc(F)c(Cl)c3Cl)n2)cc2cc(C3CC3)nn12` [Example 69] returned an EC50 of less than 1 µM. The value for `COc1cc(C(=O)NC[C@@](O)(c2ccccc2)c2cc(C(C)(C)O)c(F)c(-c3ccc(F)c(Cl)c3Cl)n2)cc2cn(C(F)F)nc12` [Example 70] was less than 1 µM; that for `COc1cc(C(=O)NC[C@@](O)(c2ccccc2)c2cc(C(C)(C)O)c(F)c(-c3ccc(F)c(Cl)c3Cl)n2)cc2sc(C)nc12` [Example 71] was less than 1 µM; that for `COc1cc(C(=O)NC[C@@](O)(c2ccccc2)c2cc(C(C)(C)O)c(F)c(-c3ccc4c(c3Cl)OC(F)(F)O4)n2)cc2cc(C3CC3)nn12` [Example 72] was less than 1 µM.

With `COc1cc(C(=O)NC[C@@](O)(c2ccccc2)c2cc(C(C)(C)O)c(F)c(-c3ccc4c(c3Cl)OC(F)(F)O4)n2)cc2sc(C)nc12` [Example 73], the EC50 was less than 1 µM. `CC(C)(O)c1cc([C@@](O)(CNC(=O)c2cc(Cl)c3nn(C4CC4)cc3c2)c2ccccc2)nc(-c2ccc3c(c2Cl)OC(F)(F)O3)c1F` [Example 75] showed an EC50 greater than 1 µM. `COc1cc(C(=O)NC[C@@](O)(c2ccccc2)c2cc(C(C)(C)O)c(F)c(-c3ccc4c(c3Cl)OC(F)(F)O4)n2)cc2cn(C(F)F)nc12` [Example 76]: the EC50 is less than 1 µM. Regarding `CC(C)(O)c1cc([C@@](O)(CNC(=O)c2cc(Cl)c3nn(C4CC4)cc3c2)c2ccccc2)nc(-c2ccc3c(c2)OC(F)(F)O3)c1F` [Example 77], the EC50 was greater than 1 µM. `COc1cc(C(=O)NC[C@@](O)(c2ccccc2)c2cc(C(C)(C)O)c(F)c(-c3cccc(Cl)c3Cl)n2)cc2sc(C)nc12` [Example 78] came in with an EC50 of less than 1 µM. As for `COc1cc(C(=O)NC[C@@](O)(c2ccccc2)c2cc(C(C)(C)O)c(F)c(-c3cccc(Cl)c3Cl)n2)cc2cn(C(F)F)nc12` [Example 80], the EC50 is less than 1 µM. Regarding `COc1cc(C(=O)NC[C@@](O)(c2ccccc2)c2cc(C(C)(C)O)c(F)c(-c3cccc(Cl)c3Cl)n2)cc2cc(C3CC3)nn12` [Example 81], the EC50 is less than 1 µM. The compound `CC(C)(O)c1cc([C@@](O)(CNC(=O)c2cc(Cl)c3nn(C4CC4)cc3c2)c2ccccc2)nc(-c2cccc(Cl)c2Cl)c1F` [Example 82] yielded an EC50 of less than 1 µM. Consider `COc1cc(C(=O)NC[C@@](O)(c2ccccc2)c2cc(C(C)(C)O)c(F)c(-c3cc(F)ccc3F)n2)cc2cn(C3CC3)nc12` [Example 83], for which the EC50 was greater than 1 µM. Take `COc1cc(C(=O)NC[C@@](O)(c2ccccc2)c2cc(C(C)(C)O)c(F)c(-c3ccc(F)c(F)c3F)n2)cc2cn(C3CC3)nc12` [Example 84]: the EC50 was less than 1 µM.

Compound `COc1cc(C(=O)NC[C@@](O)(c2ccccc2)c2cc(C(C)(C)O)c(F)c(-c3ccc(F)cc3F)n2)cc2cn(C3CC3)nc12` [Example 87] registered an EC50 greater than 1 µM.

In turn, `COc1cc(C(=O)NC[C@@](O)(c2cccc(F)c2)c2cc(C(C)(C)O)c(F)c(-c3cc(Cl)c(F)cc3F)n2)cc2sc(C)nc12` [Example 89] came in with an EC50 of less than 1 µM. Compound `COc1cc(C(=O)NC[C@@](O)(c2cccc(F)c2)c2cc(C(C)(C)O)c(F)c(-c3cc(Cl)c(F)cc3F)n2)cc2cn(C3CC3)nc12` [Example 90] had an EC50 of less than 1 µM. `CC(C)(O)c1cc([C@@](O)(CNC(=O)c2cc(Cl)c3nn(C4CC4)cc3c2)c2cccc(F)c2)nc(-c2cc(Cl)c(F)cc2F)c1F` [Example 91]: the EC50 is less than 1 µM. Turning to `COc1cc(C(=O)NC[C@@](O)(c2cccc(F)c2)c2cc(C(C)(C)O)c(F)c(-c3cc(Cl)c(F)cc3F)n2)cc2cn(C(F)F)nc12` [Example 92], the EC50 is less than 1 µM. In turn, `COc1cc(C(=O)NC[C@@](O)(c2cccc(F)c2)c2cc(C(C)(C)O)c(F)c(-c3cc(Cl)c(F)cc3F)n2)cc2cc(C3CC3)nn12` [Example 93] showed an EC50 of less than 1 µM. The value for `COc1cc(C(=O)NC[C@@](O)(c2cccc(F)c2)c2cc(C(C)(C)O)c(F)c(-c3cc(F)c(F)cc3F)n2)cc2cn(C(F)F)nc12` [Example 94] was less than 1 µM. The compound `COc1cc(C(=O)NC[C@@](O)(c2cccc(F)c2)c2cc(C(C)(C)O)c(F)c(-c3cc(F)c(F)cc3F)n2)cc2cc(C3CC3)nn12` [Example 95] returned an EC50 of less than 1 µM.

In turn, `COc1cc(C(=O)NC[C@@](O)(c2cccc(F)c2)c2cc(C(C)(C)O)c(F)c(-c3cc(F)c(F)cc3F)n2)cc2cn(C3CC3)nc12` [Example 96] had an EC50 of less than 1 µM. The compound `CC(C)(O)c1cc([C@@](O)(CNC(=O)c2cc(Cl)c3nn(C4CC4)cc3c2)c2cccc(F)c2)nc(-c2cc(F)c(F)cc2F)c1F` [Example 97] registered an EC50 of less than 1 µM. The figure for `COc1cc(C(=O)NC[C@@](O)(c2cccc(F)c2)c2cc(C(C)(C)O)c(F)c(-c3cccc(Cl)c3Cl)n2)cc2cn(C3CC3)nc12` [Example 98] is less than 1 µM. `COc1cc(C(=O)NC[C@@](O)(c2cccc(F)c2)c2cc(C(C)(C)O)c(F)c(-c3cccc(Cl)c3Cl)n2)cc2cn(C(F)F)nc12` [Example 99] had an EC50 of less than 1 µM. As to `CC(C)(O)c1cc([C@@](O)(CNC(=O)c2cc(Cl)c3nn(C4CC4)cc3c2)c2cccc(F)c2)nc(-c2cccc(Cl)c2Cl)c1F` [Example 100], the 50% effective concentration (EC50) was greater than 1 µM. Compound `COc1cc(C(=O)NC[C@@](O)(c2cccc(F)c2)c2cc(C(C)(C)O)c(F)c(-c3cccc(Cl)c3Cl)n2)cc2cc(C3CC3)nn12` [Example 101] gave an EC50 of less than 1 µM. The value for `COc1cc(C(=O)NC[C@@](O)(c2cccc(F)c2)c2cc(C(C)(C)O)c(F)c(-c3cccc(Cl)c3Cl)n2)cc2sc(C)nc12` [Example 102] was less than 1 µM; that for `COc1cc(C(=O)NC[C@@](O)(c2cccc(F)c2)c2cc(C(C)(C)O)c(F)c(-c3ccc(F)c(Cl)c3Cl)n2)cc2cn(C3CC3)nc12` [Example 103] was less than 1 µM. Consider `COc1cc(C(=O)NC[C@@](O)(c2cccc(F)c2)c2cc(C(C)(C)O)c(F)c(-c3ccc(F)c(Cl)c3Cl)n2)cc2cn(C(F)F)nc12` [Example 104], for which the EC50 is less than 1 µM. Take `CC(C)(O)c1cc([C@@](O)(CNC(=O)c2cc(Cl)c3nn(C4CC4)cc3c2)c2cccc(F)c2)nc(-c2ccc(F)c(Cl)c2Cl)c1F` [Example 105]: the EC50 is less than 1 µM. The value for `COc1cc(C(=O)NC[C@@](O)(c2cccc(F)c2)c2cc(C(C)(C)O)c(F)c(-c3ccc(F)c(Cl)c3Cl)n2)cc2cc(C3CC3)nn12` [Example 106] was greater than 1 µM.
